Assay: Drug release experiments (phosphate buffer pH 7, 37° C.)
Assay type: physicochemical
Description: Furthermore drug release tests were carried out with biodegradable matrix polymers. The above mentioned polyester methacrylate networks were loaded with 5% gentamicin and enoxazin, respectively. Samples having a size of 1×2 cm^2 were cut open and placed into a medium for release (4 ml phosphate buffer, pH 7). The pieces of the films were placed in tubes for a centrifuge, in a manner allowing the buffer solution to contact the films from all sides. The centrifuge tubes were placed into a shaking water bath at 37° C. and at predetermined intervals the medium for release was exchanged completely in order to determine the amount of the drug released. […] Samples are placed into polypropylene centrifuge vessels (which may be closed) of a volume of 15 ml and placed into contact with 4 ml of the releasing medium. […] The release experiment is carried out in a temperature controlled shaking water bath at 37° C. with 60 revolutions per minute. The temperature is controlled with an accuracy of ±0.1 K. […] The experiment is concluded when all of the drug has been released. The establishment of the release profile occurs by means of determination of the released drug by UV-Vis-spectroscopy. The resulting release profiles represent the arithmetical average from parallel experiments regarding the release from three samples of one material. If the experiment is terminated prior to the complete release of the drug from the matrix, a determination of the drug remaining in the polymer network becomes necessary. […] Using 5 ml chloroform the networks are swollen, and destroyed mechanically using a glass rod. Using additional 5 ml chloroform the swollen enoxacin containing fragments are extracted. With […] containing networks extraction is carried out using 5 ml 2-propanol. […] The content of drug remaining in the matrix is added to the content as determined with the release experiment.

[1] = from amorphous matrix N-LG(18)-10 (FIG. 4)
[2] = matrix based on paradioxanone and caprolactone, unmodified

| Compound | drug release profile [1] | drug release profile at the beginning of the release [2] | time until plateau of release is reached [2] | drug release profile (networks on the basis of polylactide-co-glycolide, segment Mn about 10000, 15 wt.-% glycolide content) |
| --- | --- | --- | --- | --- |
| O=C1CN(/N=C/c2ccc([N+](=O)[O-])o2)C(=O)N1 [nitrofurantoine] | step profile | – | – | – |
| gentamicin | – | rapid release (burst-effect) | within two days | – |
| CCOc1ccc2nc3cc(N)ccc3c(N)c2c1 [ethacridine lactate] | released more rapidly | – | – | substantially linear release, with a slightly accelerated release at the beginning |

— patent publication US8158143B2, “Systems for releasing active ingredients, based on biodegradable or biocompatible polymers with a shape memory effect” (Helmholtz-Zentrum Geesthacht Zentrum fuer Material- und …, priority 2000, dated 2012)
